Assay results: patent publication US20230067929A1, “HETEROCYCLIC DERIVATIVES, PHARMACEUTICAL COMPOSITIONS AND THEIR USE IN THE TREATMENT, AMELIORATION OR PREVENTION OF CANCER” (Tolremo Therapeutics AG, priority 2018, published 2023)

The compounds below were run on A375 cells (assay: A375 cell immunofluorescence assay (with 1 μM S1152 and 0.5 μM S1008), EC50). Conditions: 1 μM S1152 + 0.5 μM S1008, one day, ratio FL2/FL3 staining (sc-365823 antibody).
Assay type: cell-based
Procedure, shortened: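 A375 cells were treated for 1 day with 1 μM S1152, 0.5 μM S1008 and compound dose ranges in DMEM/10% FCS/2 mM glutamine, then fixed, permeabilized and immunostained (secondary antibody 2 μg/ml). FL2 (500-530 nm) signal was measured in propidium iodide-defined objects (FL3, 565-600 nm). The normalized ln FL2/ln FL3 ratio was log-transformed, and EC50 came from a 4-parameter fit.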
With CCC(=O)N1CCCC(c2nc(NC3CCCCC3)cc(-c3cccnc3)n2)C1 (stereo not drawn) the EC50 was over 10 µM.
For CC(=O)N1CCCC(c2nc(Nc3cccc(F)c3)cc(Nc3ccccn3)n2)C1 (stereo not drawn), the EC50 was 1 to 10 µM.
CC(=O)N1C[C@H](c2nc(Nc3cccnc3)cc(-c3cccnc3)n2)CC[C@@H]1C was tested, and the EC50 was under 1 µM.
Compound CC(=O)N1C[C@H](c2nc(Nc3cccc(C)c3)cc(-c3cncc4[nH]ncc34)n2)CC[C@@H]1C has an EC50 of 1 to 10 µM.
In the case of CC(=O)N1CCCC(c2nc(Nc3cccc(F)c3)cc(-c3ccc(N4C[C@@H]5C[C@H]4CO5)nc3)n2)C1 (stereo partly drawn), the EC50 is reported as 1 to 10 µM.
With CC(=O)N1C[C@H](c2nc(Nc3ccncc3)cc(-c3cccnc3)n2)CC[C@@H]1C the EC50 was under 1 µM.
CCC(=O)N1CCCC(c2nc(Nc3cccc(F)c3)cc(Nc3ncccn3)n2)C1 (stereo not drawn) was tested, and the EC50 was 1 to 10 µM.
Work on CCC(=O)N1CCCC(c2nc(Nc3cccc(F)c3)cc(-c3cnn(C)c3)n2)C1 (stereo not drawn) yielded an EC50 of over 10 µM.
Work on COc1cncc(-c2cc(Nc3cccc(C(F)F)c3)nc(C3CCCN(C(C)=O)C3)n2)c1 (stereo not drawn) yielded an EC50 of 1 to 10 µM.
In the case of CC(=O)N1CCCC(c2nc(Nc3cccc(F)c3)cc(-c3cncc(C(=O)O)c3)n2)C1 (stereo not drawn), the EC50 is reported as over 10 µM.
In the case of CNC(=O)c1cncc(-c2cc(Nc3cccc(F)c3)nc(C3CCCN(C(C)=O)C3)n2)c1 (stereo not drawn), the EC50 is reported as under 1 µM.
CC(=O)N1CCCC(c2nc(Nc3ccncn3)cc(-c3cccnc3)n2)C1 (stereo not drawn) showed an EC50 of over 10 µM.
In the case of CC(=O)N1CCCC(c2nc(Nc3cc(F)cc(F)c3)cc(-c3cccnc3)n2)C1 (stereo not drawn), the EC50 is reported as under 1 µM.
Compound COc1cncc(-c2cc(N(C)c3cccc(C)c3)nc(C3CCCN(C(C)=O)C3)n2)c1 (stereo not drawn) has an EC50 of 1 to 10 µM.
For CC(=O)N1CCCC(c2nc(Nc3cccc(C)c3)cc(-c3cncc4[nH]ncc34)n2)C1 (stereo not drawn), the EC50 was under 1 µM.
Compound CCC(=O)N1CCCC(c2nc(Nc3ccccc3F)cc(-c3cccnc3)n2)C1 (stereo not drawn) has an EC50 of 1 to 10 µM.
CCC(=O)N1CCCC(c2nc(Nc3cccc(F)c3)cc(C3=CCCCC3)n2)C1 (stereo not drawn) was tested, and the EC50 was over 10 µM.
With CC(=O)N1CCCC(c2nc(Nc3cccc(F)c3)cc(-c3cccnc3)n2)C1C (stereo not drawn) the EC50 was over 10 µM.
With CCC(=O)N1CCCC(c2nc(Nc3cccc(F)c3)cc(-c3ncccn3)n2)C1 (stereo not drawn) the EC50 was over 10 µM.
With CC(=O)N1CC(c2ccccc2)CC(c2nc(Nc3cccc(F)c3)cc(-c3cccnc3)n2)C1 (stereo not drawn) the EC50 was under 1 µM.
O=S(=O)(N1CCCC(c2nc(Nc3cccc(F)c3)cc(-c3cccnc3)n2)C1)C(F)(F)F (stereo not drawn) showed an EC50 of over 10 µM.
CC(=O)N1CCCC(c2nc(Nc3cccc(F)c3)cc(-c3cncc(C(=O)N4CCOCC4)c3)n2)C1 (stereo not drawn) gave an EC50 of 1 to 10 µM.
C#Cc1cc(Nc2cccc(F)c2)nc(C2CCCN(C(C)=O)C2)n1 (stereo not drawn) gave an EC50 of over 10 µM.
For CCC(=O)N1CCCC(c2nc(Nc3cccc(F)c3)cc(-c3cncc(OC)c3)n2)C1 (stereo not drawn), the EC50 was 1 to 10 µM.
Work on CC(=O)N1CCCC(c2nc(Nc3cccc(F)c3)cc(-c3cccs3)n2)C1 (stereo not drawn) yielded an EC50 of 1 to 10 µM.
CC(=O)N1CCCC(c2nc(Nc3cccnc3)cc(-c3cccnc3)n2)C1 (stereo not drawn) showed an EC50 of 1 to 10 µM.
CC(=O)N1CCCC(c2nc(Nc3cccc(F)c3)cc(-c3cccc4[nH]ccc34)n2)C1 (stereo not drawn) showed an EC50 of under 1 µM.
With COCCOCCOCC(=O)N1CCCC(c2nc(Nc3cccc(F)c3)cc(-c3cccnc3)n2)C1 (stereo not drawn) the EC50 was over 10 µM.
Compound CCC(=O)N1CCCC(c2nc(NCCN(C)C)cc(Nc3cccc(F)c3)n2)C1 (stereo not drawn) has an EC50 of over 10 µM.
In the case of CC(=O)N1CCCC(c2nc(Nc3cccc(F)c3)nc(-c3ccccc3)n2)C1 (stereo not drawn), the EC50 is reported as 1 to 10 µM.
CC(=O)N1CCCC(c2nc(Nc3cccc(F)c3)cc(-c3csc4cnccc34)n2)C1 (stereo not drawn) showed an EC50 of over 10 µM.
CC(=O)N1CCCC(c2nc(Nc3cccnn3)cc(-c3cccnc3)n2)C1 (stereo not drawn) was tested, and the EC50 was over 10 µM.
Compound CCC(=O)N1CCCC(c2nc(Nc3cccc(F)c3)cc(-c3cnc(N)nc3)n2)C1 (stereo not drawn) has an EC50 of over 10 µM.
With CC(=O)N1CCCC(c2nc(NC34CC(C3)C4)cc(-c3cncc4[nH]ccc34)n2)C1 (stereo not drawn) the EC50 was 1 to 10 µM.
For CCC(=O)N1CCCC(c2nc(Nc3cccc(F)c3)cc(-c3cn(C)nc3C)n2)C1 (stereo not drawn), the EC50 was over 10 µM.
For CC(=O)N1CCCC(c2nc(Nc3cccc(F)c3)cc(-c3cncc(C)c3)n2)C1 (stereo not drawn), the EC50 was under 1 µM.
Compound CCc1cncc(-c2cc(Nc3cccc(F)c3)nc(C3CCCN(C(C)=O)C3)n2)c1 (stereo not drawn) has an EC50 of under 1 µM.
CC(=O)N1CCCC(c2nc(Nc3cccc(F)c3)cc(-c3ccnnc3)n2)C1 (stereo not drawn) showed an EC50 of 1 to 10 µM.
CCC(=O)N1CCCC(c2nc(Nc3cccc(F)c3)cc(-c3cnn(C(C)C)c3)n2)C1 (stereo not drawn) showed an EC50 of over 10 µM.
In the case of CC(=O)N1CC(c2cc(Nc3cccc(F)c3)cc(-c3cccnc3)n2)CCC1C (stereo not drawn) [drawing 690], the EC50 is reported as 1 to 10 µM.
In the case of CC(=O)NCCOCCOCCNC(=O)c1ccc(-c2cc(Nc3cccc(F)c3)nc(C3CCCN(C(C)=O)C3)n2)cc1 (stereo not drawn), the EC50 is reported as over 10 µM.
Work on CC(=O)N1CCC[C@H](c2nc(Nc3cccc(F)c3)cc(-c3cccnc3)n2)C1 yielded an EC50 of over 10 µM.
Work on CCC(=O)N1CCCC(c2nc(Nc3cc(F)cc(F)c3)cc(-c3cccnc3)n2)C1 (stereo not drawn) yielded an EC50 of 1 to 10 µM.
For CCC(=O)N1CCCC(c2nc(Nc3cccc(OC)c3)cc(-c3cccnc3)n2)C1 (stereo not drawn), the EC50 was 1 to 10 µM.
With CCC(=O)N1CCCC(c2nc(Nc3cc(OC)cc(OC)c3)cc(-c3cccnc3)n2)C1 (stereo not drawn) the EC50 was 1 to 10 µM.
For CCC(=O)N1CCCC(c2nc(Nc3cccc(F)c3)cc(-c3cncnc3)n2)C1 (stereo not drawn), the EC50 was 1 to 10 µM.
For CCC(=O)N1CCCC(c2nc(Nc3cccc(F)c3)cc(-c3ccncc3)n2)C1 (stereo not drawn), the EC50 was over 10 µM.
For CCC(=O)N1CCCC(c2nc(NC3CC3)cc(-c3cccnc3)n2)C1 (stereo not drawn), the EC50 was over 10 µM.
Work on CC(=O)N1CCCC(c2nc(Nc3cccc(F)c3)cc(-c3cncc4[nH]ccc34)n2)C1 (stereo not drawn) [drawing 556] yielded an EC50 of under 1 µM.
Compound CC(=O)N1CCCC(c2nc(Nc3cccc(F)c3)cc(-c3ccc(C)nc3C)n2)C1 (stereo not drawn) has an EC50 of 1 to 10 µM.
With CC(=O)N1CCCC(c2nc(Nc3ccncc3)cc(-c3cccnc3)n2)C1 (stereo not drawn) the EC50 was 1 to 10 µM.
Compound CC(=O)N1CCCC(c2nc(Nc3cncc(C)n3)cc(-c3cncnc3)n2)C1 (stereo not drawn) has an EC50 of over 10 µM.
For CC(=O)N1CC(C)CC(c2nc(Nc3cccc(F)c3)cc(-c3cccnc3)n2)C1 (stereo not drawn), the EC50 was under 1 µM.
O=C1CCC2CCC(c3nc(Nc4cccc(F)c4)cc(-c4cccnc4)n3)CN12 (stereo not drawn) gave an EC50 of over 10 µM.
Work on CC(=O)N1CCCC(c2nc(Nc3cncc(C)c3)cc(-c3cncnc3)n2)C1 (stereo not drawn) yielded an EC50 of 1 to 10 µM.
CC(=O)N1CCC[C@@H](c2nc(Nc3cccc(F)c3)cc(-c3cccnc3)n2)C1 was tested, and the EC50 was under 1 µM.
With CCC(=O)N1CCCC(c2nc(Nc3cccc(F)c3)cc(C3=CCOCC3)n2)C1 (stereo not drawn) the EC50 was over 10 µM.
With CC(=O)N1CCCC(c2nc(Nc3cccc(F)c3)c(C)c(-c3cccnc3)n2)C1 (stereo not drawn) the EC50 was over 10 µM.
Work on CN1CC(c2nc(Nc3cccc(F)c3)cc(-c3cccnc3)n2)CCC1=O (stereo not drawn) yielded an EC50 of over 10 µM.
CC(=O)N1CCCC(c2nc(Nc3cccc(F)c3)cc(-c3cncc(N4CCNCC4)c3)n2)C1 (stereo not drawn) was tested, and the EC50 was over 10 µM.
Compound CCC(=O)N1CCCC(c2nc(Nc3cccc(F)c3)cc(-c3cncc4ccccc34)n2)C1 (stereo not drawn) has an EC50 of over 10 µM.
For CC(=O)N1CCCC(c2nc(Nc3cccc(F)c3)cc(-c3cncc4cc[nH]c34)n2)C1 (stereo not drawn), the EC50 was over 10 µM.
With CC(=O)N1CCCC(c2nc(Nc3cccc(F)c3)cc(-c3cncnc3)n2)C1 (stereo not drawn) the EC50 was 1 to 10 µM.
In the case of CN1CCC(c2nc(Nc3cccc(F)c3)cc(-c3cccnc3)n2)CC1=O (stereo not drawn), the EC50 is reported as over 10 µM.
For CC(=O)N1CCCC(c2nc(Nc3cccc(F)c3)cc(-c3cncc(C4COC4)c3)n2)C1 (stereo not drawn), the EC50 was under 1 µM.
Compound CCC(=O)N1CCCC(c2nc(Nc3cccc(F)c3)cc(C3CCOCC3)n2)C1 (stereo not drawn) has an EC50 of over 10 µM.
